Here are results for one compound from patent publication US11666578B2, “Small molecule inhibitors of CDK12/CDK13” (The Scripps Research Institute, priority 2018, dated 2023).

pIC50: −log10 of the molar value. Converted amounts (≈) assume the structure as drawn. Where two headings read alike, the source gives them in different places.

One series addresses CK1ε (Homo sapiens, UniProt P49674). Kind of series: In-house kinase inhibition assay, CK1ε. It is filed as biochemical. The text has this: [drawing 21] wherein the substituents W, X, Y, Z, and R^1, are as specified in the respective Table columns.
Another series concerns U87 cell line. Put plainly: Cell proliferation / growth inhibition, U87, 72 h (Cell-Titer Glo). It is filed as cell-based. As to conditions: Homo sapiens, U-87 MG.
A short description of series [1]: Solubility in pH 7.4 phosphate buffered saline. As to conditions: aqueous buffer. Format: physicochemical.
A short description of series [2]: Microsome stability, rat liver microsomes. It is filed as in vitro ADME. Particulars: read-out: Microsome stability t1/2 (R).
Another series deals with CYP 3A4 (Homo sapiens, UniProt P08684). Put plainly: Cytochrome P450 inhibition assay, 3A4. Format: in vitro ADME.
Chain of CYP 3A4 (P08684 whole entry): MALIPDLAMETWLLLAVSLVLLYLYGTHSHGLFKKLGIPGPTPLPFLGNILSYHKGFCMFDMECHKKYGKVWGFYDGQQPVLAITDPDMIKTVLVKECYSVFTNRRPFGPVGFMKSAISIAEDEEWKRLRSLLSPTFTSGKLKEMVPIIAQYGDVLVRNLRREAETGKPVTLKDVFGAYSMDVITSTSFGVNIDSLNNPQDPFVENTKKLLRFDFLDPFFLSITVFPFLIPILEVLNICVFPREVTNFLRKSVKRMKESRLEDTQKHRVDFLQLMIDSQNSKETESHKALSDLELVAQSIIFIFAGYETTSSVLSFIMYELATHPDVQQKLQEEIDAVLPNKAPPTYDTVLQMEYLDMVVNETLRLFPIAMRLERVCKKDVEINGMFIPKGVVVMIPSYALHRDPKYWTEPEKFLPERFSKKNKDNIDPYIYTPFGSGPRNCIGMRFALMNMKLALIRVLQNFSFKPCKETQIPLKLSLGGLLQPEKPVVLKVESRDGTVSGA
The next series can be described thus: Mouse PK. Format: in vivo. As to conditions: for T1/2: 10/10/80 DMSO/Tween-80/water; for Cmax: 20 mg/kg; for AUC: read-out: AUCINF_dos (converted).
For series [3], the system named is anti-Her2+ sensitive and resistant cell lines. Put plainly: Cell proliferation combination assay in Her2+ breast cancer cell lines (CompuSyn). It is filed as cell-based. Particulars: certain anti-Her2+ sensitive and resistant cell lines. The text has this: Multimodal use of chemotherapy remains ineffective in metastatic Her2+ and triple negative breast cancers (TNBC). In TNBC, targeted therapies in addition to Olaparib are desperately needed and determination of combination treatments need to be established. Because it is known that CDK12 and CDK13 control expression of genes involved in DNA damage repair, we examined whether inhibition of CDK12/13 augmented the killing effect of a select set of TNBC clinical agents. […] The CI offers a quantitative measure to determine if a combination of agents acts in synergy (CI<1), additively (CI=1), or is antagonistic (CI>1).
Cell proliferation was measured 72 hr after compound or vehicle treatment using Cell-Titer Glo (Promega) according to the manufacturers' instructions. EC50 values were determined using non-linear regression and a four-parameter algorithm (GraphPad Prism5). For clonogenic assays, cells were plated in 6-well dishes in triplicate at a density of 500-1000 cells per well. After overnight incubation, compound or vehicle (DMSO) was added to media for 72 hr and cells were allowed to grow out for 7-10 days, during which media was changed every 2-3 days in the absence of compound. […] Colonies with greater than 50 cells were counted using a low magnification light microscope.

Chain of CK1ε (P49674 whole entry): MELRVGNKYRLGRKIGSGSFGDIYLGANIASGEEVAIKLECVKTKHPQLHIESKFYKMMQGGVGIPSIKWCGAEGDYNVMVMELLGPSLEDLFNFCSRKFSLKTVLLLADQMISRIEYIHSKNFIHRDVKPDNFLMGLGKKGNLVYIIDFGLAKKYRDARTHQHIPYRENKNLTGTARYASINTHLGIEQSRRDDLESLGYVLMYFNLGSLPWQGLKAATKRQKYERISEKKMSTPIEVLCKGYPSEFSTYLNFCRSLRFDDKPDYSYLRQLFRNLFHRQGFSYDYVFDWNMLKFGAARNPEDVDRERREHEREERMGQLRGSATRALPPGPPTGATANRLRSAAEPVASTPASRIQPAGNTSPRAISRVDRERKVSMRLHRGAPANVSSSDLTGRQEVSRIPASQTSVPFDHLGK

Consider `Cn1cc(-n2cnc3c(NCc4nc5cc(Cl)c(Cl)cc5[nH]4)nc(N4CCOCC4)nc32)cn1` [Compound 5, N-((5,6-dichloro-1H-benzo[d]imidazol-2-yl)methyl)-9-(1-methyl-1H-pyrazol-4-yl)-2-morpholino-9H-purin-6-amine], for which the pIC50 against CK1ε is 5.80. This compound showed a GI50 in the series with U87 cell line of less than 2 nM. In addition, in series [1], the solubility came to 0.3 µM (≈ 0.15 µg/mL). In series [2], the half-life stood at 0.267 h. The “CYP inhibition 3A4” value at CYP 3A4 is 89 % inh. Besides, in the series “Mouse PK” (IP 20 mg/kg), the “AUC % Extrap” value was found to be 3.1%, the CI_obs came out at 8.3 mL/min/kg, the Tmax came out at 1.33 h and the T1/2 is 4.83 h. Besides, in “Mouse PK” (PO 20 mg/kg), the “AUC % Extrap” value is recorded as 1.7%, the CI_obs is 29.5 mL/min/kg, the F % is reported as 29.7% and the Tmax came out at 2.67 h. Moreover, in “Mouse PK” (PO 20 mg/kg), the Cmax stood at 1301 ng/mL and the T1/2 came to 3.95 h. Also, the highest concentration (Cmax) in “Mouse PK” (PO 20 mg/kg, read-out: Cmax) was determined as 2610 nM. Besides, the AUC in the series “Mouse PK” (in vivo, IP 20 mg/kg) is 41700 ng·h/mL. Further, the AUC in “Mouse PK” (plasma, PO 20 mg/kg) is 11800 ng·h/mL. The Synergy with lapatinib entry in series [3] (compound 5 plus lapatinib) is reported as “highly synergistic”. Besides, the Synergy with trastuzumab entry in series [3] (compound 5 plus trastuzumab) is listed as “highly synergistic”.
